This assay deals with human tonsil histocultures. The assay is classed as cell-based. Particulars: for donors whose tissue responded by producing antigen-specific antibodies: antigen added to medium for 2 days, responding donors out of donors tested; for dose dependence of specific IgG response: antigen in the range of 10-100 ng/ml; for induction of antibody against the other antigen and effect on total IgG production: challenge by either TT or DT.

The values below come from patent publication US6551772B1, “Model for viral infection and immune response” (AntiCancer, Inc., priority 1996, dated 2003).

With diphtheria toxin [DT], the “donors whose tissue responded by producing antigen-specific antibodies” value is 17 of 24; the “dose dependence of specific IgG response” value is “dose-dependent”; the “induction of antibody against the other antigen and effect on total IgG production” value was “did not induce the production of antibody against the other antigen nor did it increase total IgG production”.
For the substance tetanus toxoid, the “donors whose tissue responded by producing antigen-specific antibodies” value is 42 out of 55; the “dose dependence of specific IgG response” value is on record as “dose-dependent”; the “induction of antibody against the other antigen and effect on total IgG production” value is “did not induce the production of antibody against the other antigen nor did it increase total IgG production”. For the same substance, under “varied from tissue to tissue”, the “absolute amount of anti-TT IgG in medium” value is “hundreds to several thousands”.
